This is an account of results in article PMC12679539, “Synthesis and evaluation of nitroheterocyclic aromatic adamantane amides with trypanocidal activity. Part II” (RSC Medicinal Chemistry, 2025).

In data set [1] the test system is bloodstream-form Trypanosoma brucei. Put plainly: Activity against bloodstream-form Trypanosoma brucei (Alamar Blue growth inhibition). The conditions noted are these: for IC50 / IC90: Trypanosoma brucei, bloodstream form; for IC50: concentration that inhibits growth by 50%, read-out: T. brucei IC50; for IC90: concentration that inhibits growth by 90%, read-out: T. brucei IC90; for S.I. (selectivity index): ratio of IC50 values obtained with L6 cells and T. brucei. It is filed as cell-based, Trypanosoma brucei (strain 427). On the procedure:
Bloodstream form T. brucei (strain 427) were cultured at 37 °C in modified Iscove's medium. Trypanocidal activity was assessed by growing parasites in microtiter plates in the presence of various drug concentrations. […] The plates were incubated for 48 hours at 37 °C and 20 μL Alamar Blue was then added to each well. After an additional overnight incubation, the fluorescence was determined using a Gemini fluorescent plate reader (Molecular Devices). Inhibition of growth was calculated by comparison with control values and IC50 and IC90 values were determined in triplicate using linear regression analysis.
For orientation: Resazurin is reduced to fluorescent resorufin, in cell work by metabolically active cells.

In data set [2] the test system is L6 cells. Put plainly: Cytotoxic activity against rat skeletal myoblast L6 cells (Alamar Blue). Format: cell-based. The note with it: 120 h, cytotoxicity, 5 days. On the procedure: The cytotoxicity against mammalian cells was assessed using microtitre plates. Briefly, L6 cells (a rat skeletal muscle line) were seeded at 1 × 10^4 mL^−1 in 200 μL of RPMI-1640 growth medium (with 10% fetal calf serum) containing 7 different compound concentrations in a range previously established to encompass both the IC50 and IC90 values. The plates were incubated for 5 days at 37 °C and 20 μL Alamar Blue (Biosource Ltd, Wilton, North Yorkshire England.) was then added to each well. After an additional 8 hours incubation, the fluorescence was determined using a Gemini fluorescent plate reader (Molecular Devices). Inhibition of growth was calculated by comparison with control values and IC50 and IC90 values were determined in triplicate using linear regression analysis.

The test system of data set [3] is T. cruzi epimastigotes. Nature of the data set: Activity against Trypanosoma cruzi epimastigotes (Alamar Blue growth inhibition). It is filed as cell-based, Trypanosoma cruzi (strain CL Brener). The note with it: CL Brener. As for the experimental part:
Trypanocidal activity was assessed by growing parasites in microtiter plates in the presence of various drug concentrations. […] The plates were incubated for 4 days at 28 °C and 20 μL Alamar Blue (Biosource UK Ltd) was then added to each well. After an additional 3 days incubation, the fluorescence was determined using a Gemini fluorescent plate reader (Molecular Devices). Inhibition of growth was calculated by comparison with control values and IC50 and IC90 values were determined in triplicate using linear regression analysis.

In data set [4] the test system is L. infantum promastigotes. Put plainly: Activity against Leishmania infantum promastigotes (resazurin assay). Format: cell-based, Leishmania infantum (MHOM/MA/67/ITMAP-263). The conditions noted are these: for IC50: Leishmania infantum, promastigotes, 72 h, 95% CI in brackets. On the procedure: Promastigotes from the L. infantum strain (MHOM/MA/67/ITMAP-263) were cultivated in 5 ml of Schneider's insect medium, which was supplemented with 10% heat-inactivated fetal bovine serum (FBS), 200 U ml^−1 of penicillin/streptomycin, 6 μg ml^−1 of phenol red, and 5 mM of HEPES. The cultures were maintained in an incubator at 27 °C and diluted to a concentration of 2 × 10^5 cells per ml every 5 days. For the assays the parasites used were equivalent to late/log with two or three days of culture.
The efficacy of the compounds against L. infantum promastigotes was evaluated using a resazurin-based assay. Parasites were added to 100 μl of serial dilutions of the compounds in supplemented complete medium at a cell density of 5 × 10^5 ml^−1. As a quality control, a dose–response curve with the antileishmanial drug miltefosine was included in all assays. The final volume of each assay was 200 μl per well, and each condition was tested in duplicate. After a 72-hour incubation under specific conditions for each parasite, 20 μl of a 0.5 mM resazurin solution was added, and the plates were incubated for an additional 4 hours under the same conditions. Fluorescence was measured at 544 nm for excitation and 590 nm for emission using a Synergy 2 Multi-Mode Reader (Biotek, Winooski, VT, USA). Results were expressed as the percentage of parasite growth inhibition compared to controls (untreated parasites) and represent the average of at least three independent experiments. The effect was evaluated by determining the IC50 value (the concentration required to inhibit 50% growth), calculated using non-linear regression curves via GraphPad Prism version 8.1.1 for Windows (GraphPad Software, San Diego, CA, USA).

Data set [5] relates to L. infantum intracellular amastigotes. Put plainly: Activity against intracellular L. infantum amastigotes in THP-1 derived macrophages (luciferase). The note with it: for inhibition at 10 µM / IC50: Leishmania infantum; for inhibition at 10 µM: read-out: L. infantum (intracellular amastigotes) % of growth inhibition at 10 μM ± ST DEV; for IC50: read-out: L. infantum (intracellular amastigotes) IC50 (μM), 95% CI. It is filed as cell-based, Leishmania infantum (MHOM/MA/67/ITMAP-263). On the procedure: Leishmania infantum Luciferase-expressing L. infantum (strain MHOM/MA/67/ITMAP-263) axenic amastigotes were cultured in MAA/20 medium at 37 °C with 5% CO2, as described by Sereno et al. 1998.[26] The parasites were maintained in 5 mL T25 ventilated flasks and subcultured every seven days at a concentration of 1 × 10^6 cells per mL.
The activity against intracellular amastigotes of L. infantum was evaluated using a modified method described by Santarem, Tavares, and Cordeiro-da-Silva (2019).[27] THP-1 cells were differentiated into macrophages using PMA, as previously outlined. The differentiated macrophages were then infected with L. infantum axenic amastigotes expressing episomal luciferase at a macrophage-to-amastigote ratio of 1 : 10 for four hours at 37 °C in a 5% CO2 atmosphere. After this incubation, non-internalized parasites were washed away, and various concentrations of test compounds were added in a final volume of 100 μL. A dose–response curve for miltefosine was included in all assays to serve as a quality control. Each experimental condition was tested in quadruplicate. After 72 hours of incubation, the medium was replaced with 100 μL of PBS, and 25 μL of Glo-lysis buffer from the Steady-Glo Luciferase Assay System (Promega, Madison, WI, USA) was added. The plates were then agitated at 100 rpm for 10 minutes at room temperature. Following this, 30 μL of the Steady-Glo reagent (Promega, Madison, WI, USA) was added, and the mixture was incubated for 15 minutes in the dark under the same conditions. A total of 140 μL from each well was transferred to white-bottom 96-well plates, and luminescence intensity was measured using a Synergy 2 Multi-Mode Reader (Biotek, Winooski, VT, USA). The antileishmanial effect was assessed by comparing the results with those from non-treated infected cells. The IC50 value were determined through non-linear regression analysis using GraphPad Prism version 8.1.1 for Windows (GraphPad Software, San Diego, CA, USA). Results represent the average of at least three independent experiments.

A short description of data set [6]: Cytotoxicity on THP-1-derived macrophages (MTT assay). It is filed as cell-based. The note with it: human, THP-1-derived macrophages (PMA-differentiated), value or interval. On the procedure: The THP-1 cell line, a human leukemia line (ATCC® TIB-202™), was cultured in RPMI-1640 medium supplemented with 10% heat-inactivated fetal bovine serum (FBS), 2 mM. L-Glutamine, 100 IU mL^−1 penicillin/streptomycin, and 20 mM HEPES. The cells were maintained in a humidified incubator at 37 °C with 5% CO2. Subculturing was performed every three days, using 20 mL of media at a concentration of 2 × 10^5 cells per mL in a T75 flask. All cell culture reagents were purchased from Lonza Bioscience (Morrisville, NC).
The cytotoxicity of the compounds on THP-1-derived macrophages was evaluated using the colorimetric MTT assay (3-(4,5-dimethylthiazol-2-yl)-2,5-diphenyltetrazolium bromide), as described in Magoulas et al. (2021).[28] THP-1 cells were suspended in complete RPMI medium at a density of 1 × 10^6 cells per mL, and 100 μL of this suspension was seeded into each well of a 96-well plate. The cells were differentiated into macrophages by adding 40 ng mL^−1 of phorbol-myristate 13-acetate (PMA, Sigma, Saint Louis, MI, USA) for 24 hours, followed by replacement with fresh medium for an additional 24 hours. Subsequently, the cells were incubated with 100 μL of various compounds, diluted in complete RPMI medium, at concentrations ranging from 100 to 12.5 μM. Each condition was tested in triplicate. After 72 hours of incubation at 37 °C with 5% CO2, the medium was removed, and 200 μL of a 0.5 mg mL^−1 MTT solution, diluted in RPMI, was added to each well. The plates were incubated for an additional 4 hours. Following this incubation, 160 μL of the medium was removed and replaced with 160 μL of 2-propanol. Absorbance was measured at 570 nm using a Synergy 2 Multi-Mode Reader (Biotek, Winooski, VT, USA). Cytotoxicity was determined by presenting the CC50 (the concentration of the drug that reduces cell viability by 50%) interval or by calculating the CC50 value through non-linear regression analysis using GraphPad Prism version 8.1.1 for Windows (GraphPad Software, San Diego, CA, USA). The results represent the average of at least three independent experiments.
(Tetrazolium dyes change colour on reduction, which living cells bring about.)

Data set [7] has as its system T. cruzi intracellular amastigotes. Nature of the data set: microbe, parasite or virus in culture. It is filed as cell-based, Trypanosoma cruzi CL Brener PpyRE9h:mScarlet. The note with it: Trypanosoma cruzi, 120 h; in HeLa cells, 5 days. On the procedure: Assays were performed in 96-well black (clear bottom) microtitre plates (Corning Inc.). HeLa ^† cells were seeded at 10^4 per well, incubated for 3 days, and then infected with T. cruzi CL Brener PpyRE9h : mScarlet[25] culture form trypomastigotes (1 : 1 multiplicity of infection). After 16 hours, extracellular parasites were removed by washing in growth medium (×3), test compounds were added, and the plates incubated for 5 days. Fluorescence intensities were then determined using a BMG FLUOstar Omega plate reader (ex 545 nm, em 590 nm), and the data analysed using GraphPad Prism 9.0 software. The values were expressed as IC50/90 ± SD and are the mean of triplicate experiments.

Data set [8] relates to L6 cells. Set-up: method as in PMID 26479031. The note with it: cytotoxicity; cited from earlier work.
In data set [9] the test system is bloodstream-form Trypanosoma brucei. The conditions noted are these: read-out: T. brucei IC50; cited from earlier work.
In data set [10] the test system is T. cruzi epimastigotes. The note with it: read-out: T. cruzi (epimastigotes) IC50; cited from earlier work.

Read-outs that look alike come from different tables or passages of the source.

`O=C(NCc1ccc(C2C3CC4CC(C3)CC2C4)cc1)c1ccc([N+](=O)[O-])o1` (stereo not shown) [2b, N-[4-(2-Adamantyl)benzyl]-5-nitrofuran-2-carboxamide]: the IC50 (commonly the midpoint of a concentration-inhibition curve) was 17 ± 3 nM in data set [1]; 1600 ± 100 nM in the data set with L6 cells [2]; 560 ± 20 nM in the data set with T. cruzi epimastigotes [3]; 0.09 µM in data set [4]; 3.97 µM in data set [5] (THP-1, 72 h). Besides, the IC90 (as a rule, the concentration needed for an effect of 90%) amounted to 31 ± 1 nM in [1] and 1200 ± 20 nM with T. cruzi epimastigotes [3]. Moreover, the “S.I. (selectivity index)” value in data set [1] came out at 95. In addition, the inhibition (commonly the percentage by which the read-out fell short of the control) at 10 µM in [5] (THP-1, 72 h) was found to be 84.6 ± 15.6%. In addition, the cytotoxic concentration (CC50) (as a rule, the concentration giving 50% cytotoxicity) at 72 h in data set [6] fell in the range of 12500 to 25000 nM.
Take `O=C(NCCCn1cnc([N+](=O)[O-])n1)c1ccc(C23CC4CC(CC(C4)C2)C3)cc1` [6d, 4-(1-Adamantyl)-N-[3-(3-nitro-1H-1,2,4-triazol-1-yl)propyl] benzamide]: the concentration for half-maximal inhibition (IC50) in data set [1] is 180 ± 50 nM; with L6 cells [2], 22000 ± 1000 nM; in the data set on T. cruzi epimastigotes [3], 450 ± 10 nM; in [7], 3730 ± 440 nM; in [4] it was 0.27 µM. Moreover, the concentration for an effect of 90% (IC90) came out at 310 ± 40 nM in data set [1], 1100 ± 20 nM with T. cruzi epimastigotes [3] and 8420 ± 440 nM in [7]. Also, the “S.I. (selectivity index)” value in data set [1] is listed as 123. Further, the CC50 at 72 h in [6] lay within 50000 to 100000 nM.
For `O=C(CCc1ccc(C23CC4CC(CC(C4)C2)C3)cc1)NCCCn1cnc([N+](=O)[O-])n1` [6f, 3-[4-(1-Adamantyl)phenyl]-N-[3-(3-nitro-1H-1,2,4-triazol-1-yl)propyl]propanamide], the IC50 is 140 ± 20 nM in data set [1]; 19000 ± 2000 nM in the data set on L6 cells [2]; 440 ± 20 nM in the data set on T. cruzi epimastigotes [3]; 2440 ± 570 nM in data set [7]; 0.39 µM in data set [4]. The concentration for an effect of 90% (IC90) in [1] is 280 ± 10 nM; in the data set on T. cruzi epimastigotes [3], 910 ± 10 nM; in data set [7], 8230 ± 1780 nM. Besides, the “S.I. (selectivity index)” value in [1] was found to be 134. The CC50 at 72 h in data set [6] is 50000 to 100000 nM.
With `O=C(Cn1ccnc1[N+](=O)[O-])NCc1ccccc1` [Bzn, benznidazole, reference compound], the 50% inhibitory concentration (IC50) in the data set with T. cruzi epimastigotes [3] is 5400 ± 200 nM; in [7], 1040 ± 320 nM; in the data set on L6 cells [8], 510000 ± 22000 nM. In data set [7], this compound came in with a concentration for an effect of 90% (IC90) of 2540 ± 810 nM.
Consider `CCCCCCCCCCCCCCCCOP(=O)([O-])OCC[N+](C)(C)C` [MF, miltefosine, reference compound], for which the IC50 in [4] was 11.9 µM; in data set [5] (THP-1 derived macrophages, 72 h, 95% CI in brackets) it was 2.65 µM. The “SI (promastigotes) CC50/Li IC50” value in data set [4] (THP-1 CC50 / L. infantum promastigote IC50) is on record as 2.5. For the same compound, the inhibition at 10 µM in data set [5] (THP-1, 72 h) worked out at 92 ± 5%. The “SI (intracellular amastigotes) CC50/Li ia IC50” value in data set [5] (THP-1 CC50 / L. infantum intracellular amastigote IC50) is 11.3. The cytotoxic concentration (CC50) at 72 h in [6] is 30000 nM.
As to `CC1CS(=O)(=O)CCN1/N=C/c1ccc([N+](=O)[O-])o1` (stereo not shown) [Nfx, nifurtimox], the “S.I. (selectivity index)” value in data set [1] stood at 7. In addition, the half-inhibitory concentration (IC50) in data set [9] is 4400 ± 700 nM; in the data set on T. cruzi epimastigotes [10], 3100 ± 500 nM.
